We go through three compounds from patent US20220232834A1, “PSEUDOMONAS CHLORORAPHIS SPECIES AND ITS USE IN THE CONTROL OF DISEASES CAUSED BY BACTERIA AND FUNGI” (T3 BIOSCIENCE, LLC, priority 2021, published 2022).

≈ marks a conversion by molar mass, not a printed value. Like-named read-outs stand apart in the source and are kept apart here. Marks after values point to notes of the source that are not given here.

The conditions of assay [1]: Ref 5, producer Pseudomonas sp. DC165, cited from earlier work.
The test system of assay [2] is Bacillus subtilis subsp. spizizenii ATCC 6633. The conditions noted are these: Ref 6; producer Pseudomonas aurantiaca; cited from earlier work.
In the next assay the test system is Pseudomonas sevastanoi. The following applies: Ref 1; producer Pseudomonas sp. Ki19; cited from earlier work.
Assay [3] relates to Xanthomonas euvesicatoria 75-3. Nature of the assay: microbe, parasite or virus in culture. In kind it is cell-based. The conditions noted are these: 753.
Assay [4] deals with Streptococcus mutans ATCC 25175. The following applies: Ref 6; producer Pseudomonas aurantiaca; cited from earlier work.
The test system of assay [5] is Staphylococcus aureus ATCC 12600. The following applies: Ref 6; producer Pseudomonas aurantiaca; cited from earlier work.
Assay [6] relates to Clavibacter michiganensis subsp. michiganensis 382. Nature of the assay: MIC value study of 1214-CHY4 metabolites. It is filed as cell-based.
The next assay deals with Aspergillus fumigatus. The following applies: Ref 1; producer Pseudomonas sp. Ki19; cited from earlier work.
Assay [7] relates to Staphylococcus epidermidis ATCC 14990. The following applies: Ref 6; producer Pseudomonas aurantiaca; cited from earlier work.
The test system of a further assay is Staphyllococcus aureus. The following applies: Ref 1; producer Pseudomonas sp. Ki19; cited from earlier work.
Another assay relates to Botrytis cinerea CA17. Nature of the assay: microbe, parasite or virus in culture. In kind it is cell-based.
Assay [8] has as its system Enterococcus hirae ATCC 8043. The following applies: Ref 6; producer Pseudomonas aurantiaca; cited from earlier work.
Assay [9] relates to Venturia inaequalis VI19-032. Nature of the assay: microbe, parasite or virus in culture. The conditions noted are these: VI19032. In kind it is cell-based.
Assay [10] has as its system Ralstonia solanacearum K60. Kind of assay: microbe, parasite or virus in culture. The conditions noted are these: Ralstonia solanacearum, K60. In kind it is cell-based.
The next assay relates to Drechslera sorokiniana. The conditions noted are these: Ref 1; producer Pseudomonas sp. Ki19; cited from earlier work.
The test system of the next assay is Fusarium culmorum. The conditions noted are these: Ref 1; producer Pseudomonas sp. Ki19; cited from earlier work.
Assay [11] relates to Phytophthora infestans 88069. Kind of assay: microbe, parasite or virus in culture. In kind it is cell-based.
A further assay deals with Candida albicans. The conditions noted are these: Ref 1; producer Pseudomonas sp. Ki19; cited from earlier work.
Assay [12] has as its system Pseudomonas syringae. pv. tomato PT30. Nature of the assay: microbe, parasite or virus in culture. In kind it is cell-based.
Assay [13] concerns 22 bacteria and fungi, including Gram-positive bacteria mycobacteria. The conditions noted are these: Ref 3-4; producer Pseudomonas sp. B-9004; cited from earlier work.
Another assay has as its system Staphylococcus aureus. The following applies: Ref 3-4; producer Pseudomonas sp. B-9004; cited from earlier work.

For the compound `CCCCCCc1c(O)cc(CCCCC)cc1O` (single isomer, unassigned) [Peak 2, 2-hexyl-5-pentylbenzene-1,3-diol], the “Activity: free radical scavenging” value in assay [1] is on record as “Free radical scavenging substances”; in [1] (listed as Resorstatin), “free radical scavenging substance”. For the same compound, the “Activity (MIC values)” value in [2] is listed as “ATCC 6633(4.2 μg/mL)”; in the assay with Pseudomonas sevastanoi, “Pseudomonas sevastanoi (50 μg/mL)”; in [4], “ATCC 25175(4.2 μg/mL)”; in [5], “ATCC 12600 (2.1 μg/mL)”; with Aspergillus fumigatus, “Aspergillus fumigatus (50 μg/mL)”; in assay [7], “ATCC 14990 (4.2 μg/mL)”. Besides, the “Activity (MIC values)” value with Staphyllococcus aureus is on record as “Staphyllococcus aureus (7 μg/mL)”; in assay [8], “ATCC 8043 (4.2 μg/mL)”; in the assay on Drechslera sorokiniana, “Drechslera sorokiniana (50 μg/mL)”; in the assay with Fusarium culmorum, “Fusarium culmorum (50 μg/mL)”; in the assay with Candida albicans, “Candida albicans (50 μg/mL)”. Further, the MIC in [3] is 78 µg/mL (≈ 295 µM); in [6], 1.56^c μg/mL; in [6] (Clavibacter michiganensis), 1.56 µg/mL; with Botrytis cinerea CA17, > 100 µg/mL; in assay [9], > 100 µg/mL; in assay [10], > 25 mg/mL. Besides, the MIC in assay [11] is > 100 µg/mL; in assay [12] it was 312 µg/mL (≈ 1180 µM).
On to `CCCCCCCc1cc(O)c(CCCCCC)c(O)c1` (single isomer, unassigned) [Peak 3, 2-hexyl-5-heptylbenzene-1,3-diol], for which the “Activity (MIC values)” value in assay [2] is “ATCC 6633(33.4 μg/mL)”; in assay [4], “ATCC 25175(8.4 μg/mL)”; in assay [5], “ATCC 12600 (4.2 μg/mL)”; in [7], “ATCC 14990 (4.2 μg/mL)”; in [8], “ATCC 8043 (8.4 μg/mL)”. Further, the MIC in assay [3] was 78 µg/mL (≈ 267 µM); in assay [6] (Clavibacter michiganensis), 0.78 µg/mL; in [6] (modified broth dilution (microdilution) method), 0.78^c μg/mL; against Botrytis cinerea CA17 it was > 100 µg/mL; in assay [9], > 100 µg/mL; in assay [10], > 25 mg/mL. The MIC in assay [11] is > 100 µg/mL; in assay [12] it was 156 µg/mL (≈ 533 µM).
For `CCCCCCc1c(O)cc(CCC)cc1O` [DB2073], the Activity result in assay [13] was “Active against 22 bacteria and fungi,”. Also, the “Activity (MIC values)” value with Staphylococcus aureus is listed as “(25 μg/mL)”.
